Experimental data: US20230322767A1, “ARYL SUBSTITUTED PYRROLO-PYRIDINONES AND THERAPEUTIC USES THEREOF” (Bayer Aktiengesellschaft, priority 2020, published 2023)
Where two headings read alike, the source gives them in different places.

Key:
Format in all cases: biochemical
CSNK1D = CSNK1D (Homo sapiens (Human), UniProt P48730); assay: CSNK1D Assay (ADP-Glo, 1 μM ATP); conditions: median, read-out: CSNK1D IC50 [mol/l] (median)
Summary of the method: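 Enzyme preincubated with compound 15 min at 22° C in 50 mM HEPES pH 7.5 buffer with 10 mM MgCl2, 1 mM DTT; kinase reaction run at 1 μM ATP with biotinylated peptide substrate. ADP formed was detected by ADP-Glo luminescence as the measure of activity.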

[1] = molecular target: wild-type Epidermal Growth Factor Receptor (EGFR) (Homo sapiens (Human), UniProt P00533); assay: WT-EGFR Kinase Assay (TR-FRET, 2 mM ATP)
Sequence of wild-type Epidermal Growth Factor Receptor (EGFR) (P00533 669-1210): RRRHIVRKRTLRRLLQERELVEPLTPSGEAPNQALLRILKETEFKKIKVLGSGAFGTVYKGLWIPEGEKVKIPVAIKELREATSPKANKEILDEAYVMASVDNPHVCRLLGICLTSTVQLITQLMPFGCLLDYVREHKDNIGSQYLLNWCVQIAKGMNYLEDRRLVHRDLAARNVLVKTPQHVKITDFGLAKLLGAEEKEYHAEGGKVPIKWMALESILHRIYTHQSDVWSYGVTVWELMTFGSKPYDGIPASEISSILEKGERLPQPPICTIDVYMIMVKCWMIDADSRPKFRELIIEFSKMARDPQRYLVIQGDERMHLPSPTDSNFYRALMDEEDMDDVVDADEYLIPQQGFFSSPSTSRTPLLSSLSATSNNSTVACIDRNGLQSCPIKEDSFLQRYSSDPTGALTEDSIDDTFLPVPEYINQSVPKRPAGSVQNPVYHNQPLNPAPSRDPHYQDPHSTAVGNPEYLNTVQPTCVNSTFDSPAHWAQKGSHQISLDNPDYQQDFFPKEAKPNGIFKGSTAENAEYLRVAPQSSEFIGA
Summary of the method: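 GST-tagged human EGFR (R669–A1210, Sf9-expressed) preincubated 15 min at 22° C with compound in pH 7.0 Hepes/MgCl2 buffer, then reacted at 2 mM ATP with a biotinylated peptide substrate. Phosphorylation detected by TR-FRET (streptavidin-XL665, Tb-cryptate anti-phosphotyrosine) as the 665/620 nm emission ratio.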

CSNK1A1 = CSNK1A1 (Homo sapiens (Human), UniProt P48729); assay: CSNK1A1 Assay 2 (ADP-Glo, 1 μM ATP); conditions: median, read-out: CSNK1A1 Assay 2 IC50 [mol/l] (median)
Sequence of CSNK1A1 (P48729 whole entry): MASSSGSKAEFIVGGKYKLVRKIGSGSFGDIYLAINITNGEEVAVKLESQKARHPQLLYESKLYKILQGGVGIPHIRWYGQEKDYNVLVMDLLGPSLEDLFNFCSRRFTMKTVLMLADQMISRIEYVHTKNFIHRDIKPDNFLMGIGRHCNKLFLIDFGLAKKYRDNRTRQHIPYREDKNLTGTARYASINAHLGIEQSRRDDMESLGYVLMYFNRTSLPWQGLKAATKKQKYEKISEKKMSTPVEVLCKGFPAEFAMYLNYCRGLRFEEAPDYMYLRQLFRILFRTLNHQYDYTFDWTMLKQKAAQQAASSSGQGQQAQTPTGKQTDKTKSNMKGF
Summary of the method: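 Enzyme (~0.0375 ng/μL) preincubated 15 min at 22° C with compound in HEPES pH 7.5 buffer, then reacted with 1 μM ATP and biotin-Ahx-KRRRAL-pS-VASLPGL peptide. ADP product measured by ADP-Glo luminescence after 1 h ATP depletion and 1 h detection at 22° C.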

[2] = read-out: EGFR Wildtyp 2 mM ATP IC50 [mol/l] (median), median or individual measurements
[3] = EGFR Wildtyp 2 mM ATP IC50 [mol/l] (median), median or individual measurements

Sequence of CSNK1D (P48730 whole entry): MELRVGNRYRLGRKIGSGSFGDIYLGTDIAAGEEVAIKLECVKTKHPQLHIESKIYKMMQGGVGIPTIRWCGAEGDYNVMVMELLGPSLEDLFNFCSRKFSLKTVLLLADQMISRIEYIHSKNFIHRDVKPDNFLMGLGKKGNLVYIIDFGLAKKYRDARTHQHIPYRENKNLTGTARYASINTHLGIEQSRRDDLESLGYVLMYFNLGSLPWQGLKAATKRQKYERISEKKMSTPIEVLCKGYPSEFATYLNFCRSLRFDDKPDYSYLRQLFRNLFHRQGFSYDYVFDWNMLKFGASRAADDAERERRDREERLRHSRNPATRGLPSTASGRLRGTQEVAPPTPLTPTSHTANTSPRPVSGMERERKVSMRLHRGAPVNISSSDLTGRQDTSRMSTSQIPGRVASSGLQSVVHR

CN1CCc2[nH]c(-c3ccnc(NC(=O)Cc4ccc(F)cc4)c3)c(-c3ccccc3)c2C1=O [Example 1, 2-(4-fluorophenyl)-N-[4-(5-methyl-4-oxo-3-phenyl-4,5,6,7-tetrahydro-1H-pyrrolo[3,2-c]pyridin-2-yl)pyridin-2-yl]acetamide]
IC50 (CSNK1D): 3.7 nM
IC50 [1, 2]: > 20000 nM
IC50 (CSNK1A1): 1.3 nM

CN1CC(CC2CC2)c2[nH]c(-c3ccnc(NC(=O)C(CC(F)F)c4ccc(F)cc4)c3)c(-c3ccc(F)cc3)c2C1=O (stereo not shown) [Example 64, N-{4-[7-(cyclopropylmethyl)-3-(4-fluorophenyl)-5-methyl-4-oxo-4,5,6,7-tetrahydro-1H-pyrrolo[3,2-c]pyridin-2-yl]pyridin-2-yl}-4,4-difluoro-2-(4-fluorophenyl)butanamide]
IC50 (CSNK1D): 4.8 nM
IC50 [1, 2]: > 20000 nM
IC50 (CSNK1A1): 8.5 nM

O=C(Cc1ccc(F)cc1)Nc1cc(-c2[nH]c3c(c2-c2ccccc2)C(=O)NCC3)ccn1 [Example 72, 2-(4-fluorophenyl)-N-[4-(4-oxo-3-phenyl-4,5,6,7-tetrahydro-1H-pyrrolo[3,2-c]pyridin-2-yl)pyridin-2-yl]acetamide]
IC50 (CSNK1D): 1.3 nM
IC50 [1, 2]: > 20000 nM
IC50 (CSNK1A1): 0.66 nM

O=C(Cc1ccc(F)cc1)Nc1cc(-c2[nH]c3cc[nH]c(=O)c3c2-c2ccccc2)ccn1 [Example 73, 2-(4-fluorophenyl)-N-[4-(4-oxo-3-phenyl-4,5-dihydro-1H-pyrrolo[3,2-c]pyridin-2-yl)pyridin-2-yl]acetamide]
IC50 (CSNK1D): 5.4 nM
IC50 [1, 2]: > 20000 nM
IC50 (CSNK1A1): 1.9 nM

Cn1cc(Cl)c2[nH]c(-c3ccnc(NC(=O)Cc4ccc(F)cc4)c3)c(-c3ccccc3)c2c1=O [Example 79, N-[4-(7-chloro-5-methyl-4-oxo-3-phenyl-4,5-dihydro-1H-pyrrolo[3,2-c]pyridin-2-yl)pyridin-2-yl]-2-(4-fluorophenyl)acetamide]
IC50 (CSNK1D): 4.8 nM
IC50 [1, 2]: > 20000 nM
IC50 (CSNK1A1): 5.1 nM

CC1(C)Cc2[nH]c(-c3ccnc(NC(=O)Cc4ccc(F)cc4)c3)c(-c3ccccc3)c2C(=O)N1 [Example 82, N-[4-(6,6-dimethyl-4-oxo-3-phenyl-4,5,6,7-tetrahydro-1H-pyrrolo[3,2-c]pyridin-2-yl)pyridin-2-yl]-2-(4-fluorophenyl)acetamide]
IC50 (CSNK1D): 2.4 nM
IC50 [1, 2]: > 20000 nM
IC50 (CSNK1A1): 1.3 nM

CC1(C)Cc2[nH]c(-c3ccnc(NC(=O)Cc4ccc(F)cc4)c3)c(-c3ccc(F)cc3)c2C(=O)N1 [Example 83, 2-(4-fluorophenyl)-N-{4-[3-(4-fluorophenyl)-6,6-dimethyl-4-oxo-4,5,6,7-tetrahydro-1H-pyrrolo[3,2-c]pyridin-2-yl]pyridin-2-yl}acetamide]
IC50 (CSNK1D): 3.5 nM
IC50 [1, 2]: > 20000 nM
IC50 (CSNK1A1): 1.9 nM

CC1(C)Cc2[nH]c(-c3ccnc(NC(=O)Cc4ccc(F)cc4)c3)c(-c3ccccc3F)c2C(=O)N1 [Example 84, 2-(4-fluorophenyl)-N-{4-[3-(2-fluorophenyl)-6,6-dimethyl-4-oxo-4,5,6,7-tetrahydro-1H-pyrrolo[3,2-c]pyridin-2-yl]pyridin-2-yl}acetamide]
IC50 (CSNK1D): 4.8 nM
IC50 [1, 3]: > 20000 nM
IC50 ([1]; read-out: EGFR Wildtyp 2 mM ATP IC50 [mol/l] (median), median or individual measurements, listed as 084): 16000 nM
IC50 (CSNK1A1): 3.4 nM

CC1(C)Cc2[nH]c(-c3ccnc(NC(=O)Cc4ccc(F)cc4)c3)c(-c3cccc(F)c3)c2C(=O)N1 [Example 85, 2-(4-fluorophenyl)-N-{4-[3-(3-fluorophenyl)-6,6-dimethyl-4-oxo-4,5,6,7-tetrahydro-1H-pyrrolo[3,2-c]pyridin-2-yl]pyridin-2-yl}acetamide]
IC50 (CSNK1D): 3.9 nM
IC50 [1, 2]: > 5710 nM
IC50 (CSNK1A1): 1.9 nM

Cc1cccc(-c2c(-c3ccnc(NC(=O)Cc4ccc(F)cc4)c3)[nH]c3c2C(=O)NC(C)(C)C3)c1 [Example 86, N-{4-[6,6-dimethyl-3-(3-methylphenyl)-4-oxo-4,5,6,7-tetrahydro-1H-pyrrolo[3,2-c]pyridin-2-yl]pyridin-2-yl}-2-(4-fluorophenyl)acetamide]
IC50 (CSNK1D): 5.2 nM
IC50 [1, 2]: > 20000 nM
IC50 (CSNK1A1): 4 nM

CC(C(=O)Nc1cc(-c2[nH]c3c(c2-c2ccccc2F)C(=O)NC(C)(C)C3)ccn1)c1ccc(F)cc1 (stereo not shown) [Example 87, 2-(4-fluorophenyl)-N-{4-[3-(2-fluorophenyl)-6,6-dimethyl-4-oxo-4,5,6,7-tetrahydro-1H-pyrrolo[3,2-c]pyridin-2-yl]pyridin-2-yl}propanamide]
IC50 (CSNK1D): 13 nM
IC50 [1, 2]: > 20000 nM
IC50 (CSNK1A1): 12 nM

CC1(C)Cc2[nH]c(-c3ccnc(NC(=O)Cc4ccc(F)cc4)c3)c(-c3ccc(Cl)cc3)c2C(=O)N1 [Example 90, N-{4-[3-(4-chlorophenyl)-6,6-dimethyl-4-oxo-4,5,6,7-tetrahydro-1H-pyrrolo[3,2-c]pyridin-2-yl]pyridin-2-yl}-2-(4-fluorophenyl)acetamide]
IC50 (CSNK1D): 4.1 nM
IC50 [1, 2]: > 20000 nM
IC50 (CSNK1A1): 3.2 nM

Cc1ccc(-c2c(-c3ccnc(NC(=O)Cc4ccc(F)cc4)c3)[nH]c3c2C(=O)NC(C)(C)C3)cc1 [Example 92, N-{4-[6,6-dimethyl-3-(4-methylphenyl)-4-oxo-4,5,6,7-tetrahydro-1H-pyrrolo[3,2-c]pyridin-2-yl]pyridin-2-yl}-2-(4-fluorophenyl)acetamide]
IC50 (CSNK1D): 5.7 nM
IC50 [1, 2]: > 20000 nM
IC50 (CSNK1A1): 4.5 nM

CC1(C)Cc2[nH]c(-c3ccnc(NC(=O)Cc4ccc(F)cc4)c3)c(-c3cccnc3)c2C(=O)N1 [Example 93, N-{4-[6,6-dimethyl-4-oxo-3-(pyridin-3-yl)-4,5,6,7-tetrahydro-1H-pyrrolo[3,2-c]pyridin-2-yl]pyridin-2-yl}-2-(4-fluorophenyl)acetamide]
IC50 (CSNK1D): 9.3 nM
IC50 [1, 2]: > 20000 nM
IC50 (CSNK1A1): 4 nM

COCCNC(=O)c1ccc(CC(=O)Nc2cc(-c3[nH]c4c(c3-c3ccc(F)cc3)C(=O)N(C)CC4)ccn2)cc1 [Example 140, 4-[2-({4-[3-(4-fluorophenyl)-5-methyl-4-oxo-4,5,6,7-tetrahydro-1H-pyrrolo[3,2-c]pyridin-2-yl]pyridin-2-yl}amino)-2-oxoethyl]-N-(2-methoxyethyl)benzamide]
IC50 (CSNK1D): 1.8 nM
IC50 [1, 2]: > 20000 nM
IC50 (CSNK1A1): 1.6 nM

COCCN(C)C(=O)c1ccc(CC(=O)Nc2cc(-c3[nH]c4c(c3-c3ccc(F)cc3)C(=O)N(C)CC4)ccn2)cc1 [Example 141, 4-[2-({4-[3-(4-fluorophenyl)-5-methyl-4-oxo-4,5,6,7-tetrahydro-1H-pyrrolo[3,2-c]pyridin-2-yl]pyridin-2-yl}amino)-2-oxoethyl]-N-(2-methoxyethyl)-N-methylbenzamide]
IC50 (CSNK1D): 2.7 nM
IC50 [1, 2]: > 20000 nM
IC50 (CSNK1A1): 3.6 nM

COCCNC(=O)c1ccc(CC(=O)Nc2cc(-c3[nH]c4ccn(C)c(=O)c4c3-c3ccc(F)cc3)ccn2)cc1 [Example 142, 4-[2-({4-[3-(4-fluorophenyl)-5-methyl-4-oxo-4,5-dihydro-1H-pyrrolo[3,2-c]pyridin-2-yl]pyridin-2-yl}amino)-2-oxoethyl]-N-(2-methoxyethyl)benzamide]
IC50 (CSNK1D): 3.8 nM
IC50 [1, 2]: > 20000 nM
IC50 (CSNK1A1): 2.7 nM

COCCN(C)C(=O)c1ccc(CC(=O)Nc2cc(-c3[nH]c4ccn(C)c(=O)c4c3-c3ccc(F)cc3)ccn2)cc1 [Example 143, 4-[2-({4-[3-(4-fluorophenyl)-5-methyl-4-oxo-4,5-dihydro-1H-pyrrolo[3,2-c]pyridin-2-yl]pyridin-2-yl}amino)-2-oxoethyl]-N-(2-methoxyethyl)-N-methylbenzamide]
IC50 (CSNK1D): 2.7 nM
IC50 [1, 2]: > 20000 nM
IC50 (CSNK1A1): 4 nM

CN1CCc2[nH]c(-c3ccnc(NC(=O)Cc4ccc(C(=O)N5CCNCC5)cc4)c3)c(-c3ccc(F)cc3)c2C1=O [Example 144, N-{4-[3-(4-fluorophenyl)-5-methyl-4-oxo-4,5,6,7-tetrahydro-1H-pyrrolo[3,2-c]pyridin-2-yl]pyridin-2-yl}-2-[4-(piperazine-1-carbonyl)phenyl]acetamide]
IC50 (CSNK1D): 3 nM
IC50 [1, 2]: 3620 nM
IC50 (CSNK1A1): 2 nM

Cn1ccc2[nH]c(-c3ccnc(NC(=O)Cc4ccc(F)cc4)c3)c(-c3ccccn3)c2c1=O [Example 146, 2-(4-fluorophenyl)-N-{4-[5-methyl-4-oxo-3-(pyridin-2-yl)-4,5-dihydro-1H-pyrrolo[3,2-c]pyridin-2-yl]pyridin-2-yl}acetamide]
IC50 (CSNK1D): 4.4 nM
IC50 [1, 2]: > 20000 nM
IC50 (CSNK1A1): 3.3 nM

CC(C(=O)Nc1cc(-c2[nH]c3c(c2-c2ccccc2)C(=O)N(C)CC3)ccn1)c1ccncc1 (stereo not shown) [Example 154, N-[4-(5-methyl-4-oxo-3-phenyl-4,5,6,7-tetrahydro-1H-pyrrolo[3,2-c]pyridin-2-yl)pyridin-2-yl]-2-(pyridin-4-yl)propanamide]
IC50 (CSNK1D): 6 nM
IC50 [1, 3]: > 20000 nM
IC50 (CSNK1A1): 5.1 nM

O=C(Cc1ccc(F)cc1)Nc1cc(-c2[nH]c3ccn(C4CC4)c(=O)c3c2-c2ccccc2)ccn1 [Example 159, N-[4-(5-cyclopropyl-4-oxo-3-phenyl-4,5-dihydro-1H-pyrrolo[3,2-c]pyridin-2-yl)pyridin-2-yl]-2-(4-fluorophenyl)acetamide]
IC50 (CSNK1D): 1.6 nM
IC50 [1, 2]: > 20000 nM
IC50 (CSNK1A1): 0.96 nM
